IC50 data for 26 molecules are collected here from US20230399341A1, “7-PHENYL SUBSTITUTED 2-AMINOQUINAZOLINE INHIBITORS OF HPK1” (MERCK SHARP & DOHME LLC, priority 2020, published 2023).

Structures are written as SMILES.

This experiment has as its target T1, Human HPK1, catalytic domain (Homo sapiens, UniProt Q92918).
T1 sequence (Q92918 1-346): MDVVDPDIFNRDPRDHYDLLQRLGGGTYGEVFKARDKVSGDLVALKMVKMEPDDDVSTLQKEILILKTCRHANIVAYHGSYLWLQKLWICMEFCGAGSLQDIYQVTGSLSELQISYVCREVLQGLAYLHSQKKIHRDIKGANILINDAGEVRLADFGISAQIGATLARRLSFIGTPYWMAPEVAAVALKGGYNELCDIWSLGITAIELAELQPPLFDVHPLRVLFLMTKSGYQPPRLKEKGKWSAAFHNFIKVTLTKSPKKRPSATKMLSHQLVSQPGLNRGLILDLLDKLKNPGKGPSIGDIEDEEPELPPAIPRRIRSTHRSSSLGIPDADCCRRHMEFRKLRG
The experiment can be described thus: HPK1-SLP76 TR-FRET Assay. The experiment is classed as biochemical. The note with it: 75 pM HPK1, ATP 10 uM, SLP76 10 nM, 30 min pre-incubation, 60 min reaction. On the technique in general: In TR-FRET formats the signal depends on donor and acceptor labels being close together.

As a reminder, the IC50 is the point on the concentration scale where inhibition reaches its midpoint. High values mean a need for much substance, low ones inhibition by little substance. With `Cc1c(-c2c(F)c(N)c3cnc(Nc4cc5c(cc4F)CCN(C)C5)nc3c2Cl)cnc2c1NCCO2` [Compound 2-184, (+ and −)-8-chloro-6-fluoro-N~2~-(6-fluoro-2-methyl-1,2,3,4-tetrahydroisoquinolin-7-yl)-7-(8-methyl-2,3-dihydro-1H-pyrido[2,3-b][1,4]oxazin-7-yl)quinazoline-2,5-diamine], it took 3670 pM to reach half-maximal inhibition (IC50). Next, `COc1cc2c(cc1Nc1ncc3c(N)c(F)c(-c4cnc5c(c4C)NCCO5)cc3n1)C(C)N(C)CC2` (single isomer, unassigned) [Compound 2-35, (S or R)-6-fluoro-N^2-(6-methoxy-1,2-dimethyl-1,2,3,4-tetrahydroisoquinolin-7-yl)-7-(8-methyl-2,3-dihydro-1H-pyrido[2,3-b][14]oxazin-7-yl)quinazoline-2,5-diamine]: 152 pM; `COc1cc2c(cc1Nc1ncc3ccc(N4CCC[C@H](N5CCOC5=O)C4)cc3n1)CN(C)CC2` [Compound 3-50, 3-[(3S)-1-{2-[(6-methoxy-2-methyl-1,2,3,4-tetrahydroiso-quinolin-7-yl)amino]quinazolin-7-yl}piperidin-3-yl]-1,3-oxazol-idin-2-one]: 771000 pM; `Cc1c(-c2cc3nc(Nc4ccc5c(c4)CN(C)C(C)(C)C5)ncc3c(N)c2F)cnc2c1NCCO2` (single isomer, unassigned) [Compound 2-128, 6-fluoro-7-(8-methyl-2,3-dihydro-1H-pyrido[2,3-b][1,4]oxazin-7-yl)-N2-(2,3,3-trimethyl-1,2,3,4-tetrahydroisoquinolin-7-yl)quinazoline-2,5-diamine]: 33.7 pM.

Turning to `CN1Cc2cc(Nc3ncc4c(N)c(F)c(-c5cnc6c(c5)NCCO6)cc4n3)ccc2C2(CC2)C1` [Compound 2-151, 7-(2,3-dihydro-1H-pyrido[2,3-b][1,4]oxazin-7-yl)-6-fluoro-N~2~-(2′-methyl-2′,3′-dihydro-1′H-spiro[cyclopropane-1,4′-isoquinolin]-7′-yl)quinazoline-2,5-diamine], the IC50 was found to be 267 pM.

As for `COc1cc2c(cc1Nc1ncc3ccc(-c4cnc(C#N)c(C)c4)cc3n1)CN(C)CC2` [Compound 1-104, 5-{2-[(6-methoxy-2-methyl-1,2,3,4-tetrahydroisoquinolin-7-yl)amino]quinazolin-7-yl}-3-methylpyridine-2-carbonitrile], the IC50 stood at 212000 pM. Consider `Cc1c(-c2cc3nc(Nc4ccc(CS(C)(=O)=O)cc4)ncc3c(N)c2F)cnc2c1NCCO2` [Compound 2-24, 6-fluoro-7-(8-methyl-2,3-dihydro-1H-pyrido[2,3-b][1,4]oxazin-7-yl)-N˜2˜-{4-[(methylsulfonyl)methyl]phenyl}quinazoline-2,5-diamine], for which the IC50 came to 50.8 pM.

Turning to `COc1cc2c(cc1Nc1ncc3c(N)c(F)c(Nc4cc(CO)ccn4)cc3n1)CN(C)CC2` [Compound 3-80, [2-({5-amino-6-fluoro-2-[(6-methoxy-2-methyl-1,2,3,4-tetra-hydroisoquinolin-7-yl)amino]-quinazolin-7-yl}amino)pyridin-4-yl]methanol], the IC50 amounted to 2810 pM.

`COc1cc2c(cc1Nc1ncc3cc(Cl)c(-c4cnc5c(c4C)NCCO5)cc3n1)CN(C)CC2` [Compound 1-96, 6-chloro-N-(6-methoxy-2-methyl-1,2,3,4-tetrahydroisoquinolin-7-yl)-7-(8-methyl-2,3-dihydro-1H-pyrido[2,3-b][1,4]oxazin-7-yl)quinazolin-2-amine]: inhibition was half-maximal at 1850 pM (IC50). Next, `COc1cc2c(cc1Nc1ncc3c(N)c(F)c(-c4cnc5c(c4C)NCCO5)c(Cl)c3n1)CN(C(C)C)CC2` (single isomer, unassigned) [Compound 2-105, (+ or −)-8-chloro-6-fluoro-N2-(2-isopropyl-6-methoxy-1,2,3,4-tetrahydroisoquinolin-7-yl)-7-(8-methyl-2,3-dihydro-1H-pyrido[2,3-b][1,4]oxazin-7-yl)quinazoline-2,5-diamine]: 71.4 pM; `CNC(=O)C(F)(F)c1ccc(Nc2ncc3cc(F)c(-c4cnc5c(c4C)NCCO5)cc3n2)cc1` [Compound 1-122, 2,2-difluoro-2-(4-{[6-fluoro-7-(8-methyl-2,3-dihydro-1H-pyrido[2,3-b][1,4]oxazin-7-yl)quinazolin-2-yl]amino}phenyl)-N-methylacetamide]: 532 pM; `Cc1c(-c2cc3nc(Nc4ccc(CS(C)(=O)=O)nc4)ncc3c(N)c2F)cnc2c1NCCO2` [Compound 2-84, 6-fluoro-7-(8-methyl-2,3-dihydro-1H-pyrido[2,3-b][1,4]oxazin-7-yl)-N2-(6-((methylsulfonyl)methyl)pyridin-3-yl)quinazoline-2,5-diamine]: 22.2 pM.

Turning to `COc1cc2c(cc1Nc1ncc3ccc(NCC4CC(=O)N(C)C4)cc3n1)CN(C)CC2` (racemic) [Compound 3-59, (S and R)-4-[({2-[(6-methoxy-2-methyl-1,2,3,4-tetrahydroiso-quinolin-7-yl)amino]quinazolin-7-yl}amino)methyl]-1-methyl-pyrrolidin-2-one], half-maximal inhibition (IC50) required 365000 pM. As for `Cc1c(-c2c(F)c(N)c3cnc(Nc4ccc(N5CCOC5=O)cc4)nc3c2Cl)cnc2c1NCCO2` (single isomer, unassigned) [Compound 2-156], the IC50 came out at 235 pM.

In turn, `Cc1c(-c2cc3nc(Nc4ccc(C5(C#N)CC5)cc4)ncc3c(N)c2F)cnc2c1NCCO2` [Compound 2-18, 1-(4-{[5-amino-6-fluoro-7-(8-methyl-2,3-dihydro-1H-pyrido[2,3-b][1,4]oxazin-7-yl)quinazolin-2-yl]amino}phenyl)cyclo-propane-1-carbonitrile] displayed an IC50 of 382 pM. With `CNC(=O)C1CCc2cc(Nc3ncc4cc(F)c(-c5cnc6c(c5C)NCCO6)cc4n3)ccc21` (single isomer, unassigned) [Compound 1-118, (R or S)-5-{[6-fluoro-7-(8-methyl-2,3-dihydro-1H-pyrido[2,3-b][1,4]oxazin-7-yl)quinazolin-2-yl]amino}-N-methyl-2,3-dihydro-1H-indene-1-carboxamide], the IC50 was found to be 36.3 pM. `COc1cc2c(cc1Nc1ncc3c(N)cc(-c4cncc(N)c4C)cc3n1)CN(C)CC2` [Compound 2-39, 7-(5-amino-4-methylpyridin-3-yl)-N~2~- (6-methoxy-2-methyl-1,2,3,4-tetrahydroisoquinolin-7-yl)quinazoline-2,5-diamine] gave an IC50 of 942 pM. Next, `COc1cc2c(cc1Nc1ncc3ccc(OCC4CCNCC4)cc3n1)CN(C)CC2` [Compound 4-3, N-(6-methoxy-2-methyl-1,2,3,4-tetrahydroisoquin-olin-7-yl)-7-[(piperidin-4-yl)methoxy]quinazolin-2-amine]: 377000 pM. For `Cc1c(-c2cc3nc(Nc4cc5c(cc4F)CCN(C(C)C)C5)ncc3c(N)c2F)cnc2c1NCCO2` [Compound 2-171, 6-fluoro-N~2~-[6-fluoro-2-(propan-2-yl)-1,2,3,4-tetrahydroisoquinolin-7-yl]-7-(8-methyl-2,3-dihydro-1H-pyrido[2,3-b][1,4]oxazin-7-yl)quinazoline-2,5-diamine], half-maximal inhibition (IC50) required 50.7 pM. `Cc1c(-c2cc3nc(Nc4ccc(C5CCN(C)C5=O)cc4)ncc3cc2F)cnc2c1NCCO2` (single isomer, unassigned) [Compound 1-127, (R of S)-3-(4-{[6-fluoro-7-(8-methyl-2,3-dihydro-1H-pyrido[2,3-b][1,4]oxazin-7-yl)quinazolin-2-yl]amino}phenyl)-1-methylpyrrolidin-2-one] displayed an IC50 of 949 pM. Molecule `Cc1c(-c2cc3nc(Nc4ccccc4)ncc3c(N)c2F)cnc2c1NCCO2` [Compound 2-25, 6-fluoro-7-(8-methyl-2,3-dihydro-1H-pyrido[2,3-b][1,4]oxazin-7-yl)-N~2~- phenylquinazoline-2,5-diamine] returned an IC50 of 275 pM. Next, `COc1cc2c(cc1Nc1ncc3ccc(-c4ccc(S(=O)(=O)N5CCCC5)cc4)cc3n1)CNCC2` [Compound 1-81, N-(6-methoxy-1,2,3,4-tetrahydroisoquinolin-7-yl)-7-{4-[(pyrrolidin-1-yl)sulfonyl]phenyl}quinazo-lin-2-amine]: 192000 pM.

On to `CNC(=O)C(C)(C)c1ccc(Nc2ncc3c(N)c(F)c(-c4cnc5c(c4C)NCCO5)cc3n2)cc1` [Compound 2-187, 2-(4-{[5-amino-6-fluoro-7-(8-methyl-2,3-dihydro-1H-pyrido[2,3-b][1,4]oxazin-7-yl)quinazolin-2-yl]amino}phenyl)-N,2-dimethylpropanamide], for which half-maximal inhibition (IC50) was put at 81.2 pM.

Take `COc1cc2c(cc1Nc1ncc3ccc(-c4cncc5[nH]ccc45)cc3n1)CNCC2` [Compound 1-45, N-(6-methoxy-1,2,3,4-tetrahydroisoquinolin-7-yl)-7-(1H-pyrrolo[2,3-c]pyridin-4-yl)quinazolin-2-amine]: 885 pM corresponded to half-maximal inhibition (IC50). For `COc1cc2c(cc1Nc1ncc3ccc(N4CC5(CCOC5)OC4=O)cc3n1)CN(C)CC2` (racemic) [Compound 3-3, (S and R)-3-{2-[(6-methoxy-2-methyl-1,2,3,4-tetrahydroiso-quinolin-7-yl)amino]quinazolin-7-yl}-1,7-dioxa-3-azaspiro[4.4]-nonan-2-one] the value was 391000 pM.

Consider `COc1cc2c(cc1Nc1ncc3c(N)c(F)c(-c4cnc5c(c4C)NCCO5)cc3n1)CN(C)CC21CC1` [Compound 2-45, 6-fluoro-N~2~-(6′-methoxy-2′-methyl-2′,3′-dihydro-1′H-spiro[cyclopropane-1,4′-isoquinolin]-7′-yl)-7-(8-methyl-2,3-dihydro-1H-pyrido[2,3-b][1,4]oxazin-7-yl)quinazoline-2,5-diamine], for which inhibition was half-maximal at 163 pM (IC50).
